Measurements: PubChem BioAssay AID1963444 (Molecular Pharmacology Branch, DTP, NCI, 2024)

System: HSSY-II complex spheroid growth, percent test/control
Assay: Anticancer human tumor HSSY-II cell line growth inhibition [Asc];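 further: spheroids exposed to drug for 7 days before reading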
Conditions: for IC50: curve of first compound; for viability, T/C: stronger effect = lower value
Method in brief: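 Tumor cells were grown as multicellular spheroids with stromal HUVEC and mesenchymal stem cells and treated singly or in combination. Concentrations fell in half-log steps from the clinical Cmax, or from 10 microM where none was known.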

SMILES: Cc1nc(N2CCC3(CC2)COC(C)C3N)c(CO)nc1Sc1ccnc(N)c1Cl (centres undefined) + CCN1C(C(=O)NC23CCC(C(=O)O)(CC2)CC3)C(c2cccc(Cl)c2F)C2(C(=O)Nc3cc(Cl)ccc32)C12CCCCC2
- IC50 (second compound 0.03 µM): > 3 µM
- IC50 (second compound 0.0949 µM): 0.612 µM
- IC50 (second compound 0.3 µM): < 0.00949 µM
- IC50 (second compound 0.949 µM): < 0.00949 µM
- IC50 (second compound 3 µM): < 0.00949 µM
- viability, T/C (second compound 0.03 µM, first compound 0.00949 µM): 105%
- viability, T/C (second compound 0.03 µM, first compound 0.03 µM): 97.6%
- viability, T/C (second compound 0.03 µM, first compound 0.0949 µM): 100%
- viability, T/C (second compound 0.03 µM, first compound 0.3 µM): 93.2%
- viability, T/C (second compound 0.03 µM, first compound 0.949 µM): 88.8%
- viability, T/C (second compound 0.03 µM, first compound 3 µM): 59.8%
- viability, T/C (second compound 0.0949 µM, first compound 0.00949 µM): 64%
- viability, T/C (second compound 0.0949 µM, first compound 0.03 µM): 59.3%
- viability, T/C (second compound 0.0949 µM, first compound 0.0949 µM): 57.6%
- viability, T/C (second compound 0.0949 µM, first compound 0.3 µM): 58.7%
- viability, T/C (second compound 0.0949 µM, first compound 0.949 µM): 44.3%
- viability, T/C (second compound 0.0949 µM, first compound 3 µM): 36.6%
- viability, T/C (second compound 0.3 µM, first compound 0.00949 µM): 23.8%
- viability, T/C (second compound 0.3 µM, first compound 0.03 µM): 22.2%
- viability, T/C (second compound 0.3 µM, first compound 0.0949 µM): 23.4%
- viability, T/C (second compound 0.3 µM, first compound 0.3 µM): 23.2%
- viability, T/C (second compound 0.3 µM, first compound 0.949 µM): 14.6%
- viability, T/C (second compound 0.3 µM, first compound 3 µM): 18.5%
- viability, T/C (second compound 0.949 µM, first compound 0.00949 µM): 7.31%
- viability, T/C (second compound 0.949 µM, first compound 0.03 µM): 6.01%
- viability, T/C (second compound 0.949 µM, first compound 0.0949 µM): 4.66%
- viability, T/C (second compound 0.949 µM, first compound 0.3 µM): 3.37%
- viability, T/C (second compound 0.949 µM, first compound 0.949 µM): 2.01%
- viability, T/C (second compound 0.949 µM, first compound 3 µM): 2.02%
- viability, T/C (second compound 3 µM, first compound 0.00949 µM): 1.65%
- viability, T/C (second compound 3 µM, first compound 0.03 µM): 1.25%
- viability, T/C (second compound 3 µM, first compound 0.0949 µM): 0.81%
- viability, T/C (second compound 3 µM, first compound 0.3 µM): 0.41%
- viability, T/C (second compound 3 µM, first compound 0.949 µM): 0.35%
- viability, T/C (second compound 3 µM, first compound 3 µM): 0.42%

SMILES: C#Cc1c(F)ccc2cc(O)cc(-c3ncc4c(N5CC6CCC(C5)N6)nc(OCC56CCCN5CC(F)C6)nc4c3F)c12 (centres undefined) + CNC(C)C(=O)NC1CN(S(=O)(=O)c2cccc(S(=O)(=O)N3CCC4CCC(C(=O)NC(c5ccccc5)c5ccccc5)N4C(=O)C(NC(=O)C(C)NC)C3)c2)CCC2CCC(C(=O)NC(c3ccccc3)c3ccccc3)N2C1=O
- IC50 (second compound 0.00316 µM): > 10 µM
- IC50 (second compound 0.01 µM): 6.97 µM
- IC50 (second compound 0.0316 µM): 8.98 µM
- IC50 (second compound 0.1 µM): > 10 µM
- IC50 (second compound 0.316 µM): 9.6 µM
- IC50 (second compound 1 µM): 7.49 µM
- viability, T/C (second compound 0.00316 µM, first compound 0.0316 µM): 97.9%
- viability, T/C (second compound 0.00316 µM, first compound 0.1 µM): 92.2%
- viability, T/C (second compound 0.00316 µM, first compound 0.316 µM): 92.2%
- viability, T/C (second compound 0.00316 µM, first compound 1 µM): 109%
- viability, T/C (second compound 0.00316 µM, first compound 3.16 µM): 96.7%
- viability, T/C (second compound 0.00316 µM, first compound 10 µM): 62.2%
- viability, T/C (second compound 0.01 µM, first compound 0.0316 µM): 100%
- viability, T/C (second compound 0.01 µM, first compound 0.1 µM): 88%
- viability, T/C (second compound 0.01 µM, first compound 0.316 µM): 94%
- viability, T/C (second compound 0.01 µM, first compound 1 µM): 98.1%
- viability, T/C (second compound 0.01 µM, first compound 3.16 µM): 88.8%
- viability, T/C (second compound 0.01 µM, first compound 10 µM): 32%
- viability, T/C (second compound 0.0316 µM, first compound 0.0316 µM): 100%
- viability, T/C (second compound 0.0316 µM, first compound 0.1 µM): 96.3%
- viability, T/C (second compound 0.0316 µM, first compound 0.316 µM): 95.2%
- viability, T/C (second compound 0.0316 µM, first compound 1 µM): 94.3%
- viability, T/C (second compound 0.0316 µM, first compound 3.16 µM): 94.2%
- viability, T/C (second compound 0.0316 µM, first compound 10 µM): 45.4%
- viability, T/C (second compound 0.1 µM, first compound 0.0316 µM): 100%
- viability, T/C (second compound 0.1 µM, first compound 0.1 µM): 91.7%
- viability, T/C (second compound 0.1 µM, first compound 0.316 µM): 93.6%
- viability, T/C (second compound 0.1 µM, first compound 1 µM): 88.5%
- viability, T/C (second compound 0.1 µM, first compound 3.16 µM): 85.1%
- viability, T/C (second compound 0.1 µM, first compound 10 µM): 63%
- viability, T/C (second compound 0.316 µM, first compound 0.0316 µM): 102%
- viability, T/C (second compound 0.316 µM, first compound 0.1 µM): 93.9%
- viability, T/C (second compound 0.316 µM, first compound 0.316 µM): 88.5%
- viability, T/C (second compound 0.316 µM, first compound 1 µM): 91.2%
- viability, T/C (second compound 0.316 µM, first compound 3.16 µM): 84.9%
- viability, T/C (second compound 0.316 µM, first compound 10 µM): 48.1%
- viability, T/C (second compound 1 µM, first compound 0.0316 µM): 91.9%
- viability, T/C (second compound 1 µM, first compound 0.1 µM): 90.8%
- viability, T/C (second compound 1 µM, first compound 0.316 µM): 96.2%
- viability, T/C (second compound 1 µM, first compound 1 µM): 86.1%
- viability, T/C (second compound 1 µM, first compound 3.16 µM): 86.6%
- viability, T/C (second compound 1 µM, first compound 10 µM): 37.5%

SMILES: Cc1nc(N2CCC3(CC2)COC(C)C3N)c(CO)nc1Sc1ccnc(N)c1Cl (centres undefined) + CNC(C)C(=O)NC1CN(S(=O)(=O)c2cccc(S(=O)(=O)N3CCC4CCC(C(=O)NC(c5ccccc5)c5ccccc5)N4C(=O)C(NC(=O)C(C)NC)C3)c2)CCC2CCC(C(=O)NC(c3ccccc3)c3ccccc3)N2C1=O
- IC50 (second compound 0.00316 µM): > 3 µM
- IC50 (second compound 0.01 µM): > 3 µM
- IC50 (second compound 0.0316 µM): > 3 µM
- IC50 (second compound 0.1 µM): > 3 µM
- IC50 (second compound 0.316 µM): > 3 µM
- IC50 (second compound 1 µM): > 3 µM
- viability, T/C (second compound 0.00316 µM, first compound 0.00949 µM): 104%
- viability, T/C (second compound 0.00316 µM, first compound 0.03 µM): 102%
- viability, T/C (second compound 0.00316 µM, first compound 0.0949 µM): 90.9%
- viability, T/C (second compound 0.00316 µM, first compound 0.3 µM): 92.6%
- viability, T/C (second compound 0.00316 µM, first compound 0.949 µM): 90.7%
- viability, T/C (second compound 0.00316 µM, first compound 3 µM): 69.1%
- viability, T/C (second compound 0.01 µM, first compound 0.00949 µM): 105%
- viability, T/C (second compound 0.01 µM, first compound 0.03 µM): 97.2%
- viability, T/C (second compound 0.01 µM, first compound 0.0949 µM): 90.8%
- viability, T/C (second compound 0.01 µM, first compound 0.3 µM): 93.7%
- viability, T/C (second compound 0.01 µM, first compound 0.949 µM): 88.1%
- viability, T/C (second compound 0.01 µM, first compound 3 µM): 66.9%
- viability, T/C (second compound 0.0316 µM, first compound 0.00949 µM): 101%
- viability, T/C (second compound 0.0316 µM, first compound 0.03 µM): 91.2%
- viability, T/C (second compound 0.0316 µM, first compound 0.0949 µM): 95.4%
- viability, T/C (second compound 0.0316 µM, first compound 0.3 µM): 85.8%
- viability, T/C (second compound 0.0316 µM, first compound 0.949 µM): 90.7%
- viability, T/C (second compound 0.0316 µM, first compound 3 µM): 74.9%
- viability, T/C (second compound 0.1 µM, first compound 0.00949 µM): 96.9%
- viability, T/C (second compound 0.1 µM, first compound 0.03 µM): 96.4%
- viability, T/C (second compound 0.1 µM, first compound 0.0949 µM): 97.5%
- viability, T/C (second compound 0.1 µM, first compound 0.3 µM): 95.6%
- viability, T/C (second compound 0.1 µM, first compound 0.949 µM): 84.3%
- viability, T/C (second compound 0.1 µM, first compound 3 µM): 70.8%
- viability, T/C (second compound 0.316 µM, first compound 0.00949 µM): 93.5%
- viability, T/C (second compound 0.316 µM, first compound 0.03 µM): 94.2%
- viability, T/C (second compound 0.316 µM, first compound 0.0949 µM): 90.2%
- viability, T/C (second compound 0.316 µM, first compound 0.3 µM): 85.4%
- viability, T/C (second compound 0.316 µM, first compound 0.949 µM): 78.7%
- viability, T/C (second compound 0.316 µM, first compound 3 µM): 72.5%
- viability, T/C (second compound 1 µM, first compound 0.00949 µM): 97.5%
- viability, T/C (second compound 1 µM, first compound 0.03 µM): 92.8%
- viability, T/C (second compound 1 µM, first compound 0.0949 µM): 92.7%
- viability, T/C (second compound 1 µM, first compound 0.3 µM): 84.7%
- viability, T/C (second compound 1 µM, first compound 0.949 µM): 87.6%
- viability, T/C (second compound 1 µM, first compound 3 µM): 76%
